Earlier results in patent US20110208437A1, “METHOD AND APPARATUS FOR I[…] SAFE AND E[…] REGIMEN” (THE MCLEAN HOSPITAL CORPORATION, priority 2008, published 2011).

Tests used:
[1] = oral administration of the same mg/kg dose
dopamine reuptake = dopamine reuptake (Homo sapiens, UniProt Q01959)
[2] = 2.5 mg Focalin same therapeutic benefit as 5.0 mg Ritalin
[3] = clinical trials, adults and children

Chain of dopamine reuptake (Q01959 whole entry): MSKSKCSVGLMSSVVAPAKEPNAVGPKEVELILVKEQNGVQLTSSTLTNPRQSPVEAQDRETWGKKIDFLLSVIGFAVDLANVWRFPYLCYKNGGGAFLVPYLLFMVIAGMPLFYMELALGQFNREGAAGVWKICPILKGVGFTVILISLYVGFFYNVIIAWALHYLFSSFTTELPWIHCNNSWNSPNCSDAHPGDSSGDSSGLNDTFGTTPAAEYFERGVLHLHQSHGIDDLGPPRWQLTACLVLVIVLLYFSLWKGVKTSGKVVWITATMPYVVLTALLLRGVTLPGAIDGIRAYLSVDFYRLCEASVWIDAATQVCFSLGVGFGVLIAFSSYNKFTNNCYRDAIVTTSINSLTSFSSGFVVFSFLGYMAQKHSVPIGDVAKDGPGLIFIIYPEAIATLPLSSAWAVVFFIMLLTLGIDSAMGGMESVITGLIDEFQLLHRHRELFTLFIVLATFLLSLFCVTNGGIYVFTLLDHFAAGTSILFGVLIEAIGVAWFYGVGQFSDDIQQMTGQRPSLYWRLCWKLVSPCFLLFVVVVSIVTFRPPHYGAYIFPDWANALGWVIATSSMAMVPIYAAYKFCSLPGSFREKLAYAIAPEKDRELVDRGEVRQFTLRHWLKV

## COC(=O)C(c1ccccc1)C1CCCCN1 (stereo not shown) [IR-MPH, methylphenidate]
[1]
  differences between individuals in peak blood levels (Cmax): 2-3 fold

## CC(NC(C)(C)C)C(=O)c1cccc(Cl)c1 (stereo not shown) [Bupropion]
Dopamine reuptake
  potency as inhibitor of dopamine reuptake relative to norepinephrine reuptake: twice as potent

## COC(=O)[C@H](c1ccccc1)[C@H]1CCCCN1 [Focalin]
[2]
  potency relative to methylphenidate: twice as potent

## CNCC[C@@H](Oc1ccccc1C)c1ccccc1 [Atomoxetine]
[3]
  coverage of symptoms associated with ADHD: 24 h
